Drawing on patent US7491794B2, “Macrocyclic compounds as inhibitors of viral replication” (Intermune, Inc., priority 2003, dated 2009), this text covers IC50 and EC50 for 16 compounds.

One assay has as its target T1, NS3-NS4A protease (Hepatitis C virus genotype 1a, UniProt P27958).
T1 construct: Recombinant E. coli or Baculovirus full-length NS3 was diluted to 3.33 μM with assay buffer; made in house; host or cells: E. coli or baculovirus (BV) system
Description: NS3-NS4A protease assay (NS3 inhibition assay, RETS1 substrate), Section B. It is filed as biochemical. To be noted: read-out: NS3-NS4A IC50. The method, boiled down: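 Kinetic fluorescence read (335 nm excitation, 495 nm emission, 30 min) of RETS1 cleavage by NS3/NS4A-2 complex, 2 nM E. coli or 3 nM baculovirus NS3, after 10 min room-temperature compound pre-incubation. Four-parameter-fit IC50s converted to Ki by Cheng–Prusoff, Ki=IC50/(1+[S]/Km).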

In assay [1] the test system is HCV sub-genomic replicon, GS4.3. Description: Quantitation by ELISA of NPTII in the HCV sub-genomic replicon, GS4.3, Section B. It is filed as cell-based. To be noted: Hepatitis C virus; GS4.3 cells, 72 h incubation; read-out: Replicon EC50. The method, boiled down:
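NPTII marker protein in lysates was quantified by ELISA read at 450 nm after 72 h inhibitor exposure (3-fold series, final DMSO 1%, G418-free medium) of HuH-7 cells stably harbouring the subgenomic HCV replicon. Values relative to DMSO-treated controls; 4-parameter curves gave EC50.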
For orientation: ELISA stands for enzyme-linked immunosorbent assay.

SMILES strings stand for the structures.

T1 sequence (P27958 1027-1657): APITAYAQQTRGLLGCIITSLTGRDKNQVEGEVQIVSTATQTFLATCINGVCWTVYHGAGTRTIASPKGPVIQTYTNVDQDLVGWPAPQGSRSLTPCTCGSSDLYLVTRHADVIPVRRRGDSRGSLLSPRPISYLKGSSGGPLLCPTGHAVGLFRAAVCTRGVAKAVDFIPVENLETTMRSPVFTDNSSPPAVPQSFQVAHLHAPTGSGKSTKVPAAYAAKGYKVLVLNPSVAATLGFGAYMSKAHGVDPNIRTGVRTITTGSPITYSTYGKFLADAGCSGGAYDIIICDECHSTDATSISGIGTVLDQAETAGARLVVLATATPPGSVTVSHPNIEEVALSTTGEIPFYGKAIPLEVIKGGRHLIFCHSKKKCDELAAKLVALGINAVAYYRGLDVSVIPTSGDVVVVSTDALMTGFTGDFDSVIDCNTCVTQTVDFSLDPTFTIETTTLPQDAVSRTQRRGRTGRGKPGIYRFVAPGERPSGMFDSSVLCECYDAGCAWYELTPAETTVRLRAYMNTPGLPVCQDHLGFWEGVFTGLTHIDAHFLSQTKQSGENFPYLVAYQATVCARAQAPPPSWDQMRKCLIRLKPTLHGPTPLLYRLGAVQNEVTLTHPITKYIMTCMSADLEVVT

With `CC(C)(C)OC(=O)N[C@H]1CCCCC/C=C\[C@@H]2C[C@@]2(C(=O)NS(=O)(=O)C2CC2)NC(=O)[C@@H]2C[C@@H](OC(=O)N3Cc4cccc(F)c4C3)CN2C1=O` [AR00334191, (1S,4R,6S,14S,18R)-4-Fluoro-1,3-dihydro-isoindole-2-carboxylic acid 14-tert-butoxycarbonylamino-4-cyclopropanesulfonylaminocarbonyl-2,15-dioxo-3,16-diaza-tricyclo[14.3.0.0^4,6]nonadec-7-en-18-yl ester], at NS3-NS4A protease, the IC50 was < 100 nM. In addition, the EC50 in assay [1] is < 100 nM.
Consider `O=C(N[C@H]1CCCCC/C=C\[C@@H]2C[C@@]2(C(=O)NS(=O)(=O)C2CC2)NC(=O)[C@@H]2C[C@@H](OC(=O)N3Cc4ccc(Cl)cc4C3)CN2C1=O)OC1CCCC1` [AR00334218, (1S,4R,6S,14S,18R)-5-Chloro-1,3-dihydro-isoindole-2-carboxylic acid 14-cyclopentyloxycarbonylamino-4-cyclopropanesulfonylaminocarbonyl-2,15-dioxo-3,16-diaza-tricyclo[14.3.0.0^4,6]nonadec-7-en-18-yl ester], for which the IC50 on NS3-NS4A protease is < 100 nM. Moreover, in assay [1], the EC50 was < 100 nM.
Consider `O=C(N[C@H]1CCCCC/C=C\[C@@H]2C[C@@]2(C(=O)NS(=O)(=O)C2CC2)NC(=O)[C@@H]2C[C@@H](OC(=O)N3Cc4ccc(Cl)cc4C3)CN2C1=O)O[C@H]1CCOC1` [AR00334220, (1S,4R,6S,14S,18R)-5-Chloro-1,3-dihydro-isoindole-2-carboxylic acid 4-cyclopropanesulfonylaminocarbonyl-2,15-dioxo-14-(tetrahydro-furan-3-yloxycarbonylamino)-3,16-diaza-tricyclo[14.3.0.0^4,6]nonadec-7-en-18-yl ester], for which the IC50 at NS3-NS4A protease was < 100 nM. For the same compound, in assay [1], the EC50 was < 1000 nM.
In the same order, the values of `O=C(N[C@H]1CCCCC/C=C\[C@@H]2C[C@@]2(C(=O)NS(=O)(=O)C2CC2)NC(=O)[C@@H]2C[C@@H](OC(=O)N3Cc4ccc(Cl)cc4C3)CN2C1=O)OCCF` [AR00334222, (1S,4R,6S,14S,18R)-5-Chloro-1,3-dihydro-isoindole-2-carboxylic acid 4-cyclopropanesulfonylaminocarbonyl-14-(2-fluoro-ethoxycarbonylamino)-2,15-dioxo-3,16-diaza-tricyclo[14.3.0.0^4,6]nonadec-7-en-18-yl ester] are < 100 nM and < 100 nM.
Regarding `CC(C)(C)CC(=O)N[C@H]1CCCCC/C=C\[C@@H]2C[C@@]2(C(=O)NS(=O)(=O)C2CC2)NC(=O)[C@@H]2C[C@@H](OC(=O)N3Cc4ccc(Cl)cc4C3)CN2C1=O` [AR00334225, (1S,4R,6S,14S,18R)-5-Chloro-1,3-dihydro-isoindole-2-carboxylic acid 4-cyclopropanesulfonylaminocarbonyl-14-(3,3-dimethyl-butyrylamino)-2,15-dioxo-3,16-diaza-tricyclo[14.3.0.0^4,6]nonadec-7-en-18-yl ester], the IC50 at NS3-NS4A protease is < 100 nM. Further, the EC50 in assay [1] is < 1000 nM.
In the same order, the values of `O=C(CC1CCCC1)N[C@H]1CCCCC/C=C\[C@@H]2C[C@@]2(C(=O)NS(=O)(=O)C2CC2)NC(=O)[C@@H]2C[C@@H](OC(=O)N3Cc4ccc(Cl)cc4C3)CN2C1=O` [AR00334226, (1S,4R,6S,14S,18R)-5-Chloro-1,3-dihydro-isoindole-2-carboxylic acid 14-(2-cyclopentyl-acetylamino)-4-cyclopropanesulfonylaminocarbonyl-2,15-dioxo-3,16-diaza-tricyclo[14.3.0.0^4,6]nonadec-7-en-18-yl ester] are < 100 nM and < 100 nM.
The matching figures for `CC(=O)Nc1nnc(S(=O)(=O)NC(=O)[C@@]23C[C@H]2/C=C\CCCCC[C@H](NC(=O)OC(C)(C)C)C(=O)N2C[C@H](OC(=O)N4Cc5ccccc5C4)C[C@H]2C(=O)N3)s1` [AR00334247, (1S,4R,6S,14S,18R)-1,3-Dihydro-isoindole-2-carboxylic acid 4-(5-acetylamino-[1,3,4]thiadiazole-2-sulfonylaminocarbonyl)-14-tert-butoxycarbonylamino-2,15-dioxo-3,16-diaza-tricyclo[14.3.0.0^4,6]nonadec-7-en-18-yl ester]: < 100 nM and < 1000 nM.
In the same order, the values of `CC(C)(C)OC(=O)N[C@H]1CCCCC/C=C\[C@@H]2C[C@@]2(C(=O)NS(=O)(=O)c2ccc(C#N)cc2)NC(=O)[C@@H]2C[C@@H](OC(=O)N3Cc4ccccc4C3)CN2C1=O` [AR00334248, (1S,4R,6S,14S,18R)-1,3-Dihydro-isoindole-2-carboxylic acid 14-tert-butoxycarbonylamino-4-(4-cyano-benzenesulfonylaminocarbonyl)-2,15-dioxo-3,16-diaza-tricyclo[14.3.0.0^4,6]nonadec-7-en-18-yl ester] are < 100 nM and < 1000 nM.
Turning to `CC(C)(C)OC(=O)N[C@H]1CCCCC/C=C\[C@@H]2C[C@@]2(C(=O)NS(=O)(=O)c2ccc([N+](=O)[O-])cc2)NC(=O)[C@@H]2C[C@@H](OC(=O)N3Cc4ccccc4C3)CN2C1=O` [AR00334249, (1S,4R,6S,14S,18R)-1,3-Dihydro-isoindole-2-carboxylic acid 14-tert-butoxycarbonylamino-4-(4-nitro-benzenesulfonylaminocarbonyl)-2,15-dioxo-3,16-diaza-tricyclo[14.3.0.0^4,6]nonadec-7-en-18-yl ester], the IC50 on NS3-NS4A protease was < 100 nM. Also, the EC50 in assay [1] was < 1000 nM.
The matching figures for `CC(C)(C)OC(=O)N[C@H]1CCCCC/C=C\[C@@H]2C[C@@]2(C(=O)NS(=O)(=O)c2ccc(Cl)cc2)NC(=O)[C@@H]2C[C@@H](OC(=O)N3Cc4ccccc4C3)CN2C1=O` [AR00334250, (1S,4R,6S,14S,18R)-1,3-Dihydro-isoindole-2-carboxylic acid 14-tert-butoxycarbonylamino-4-(4-chloro-benzenesulfonylaminocarbonyl)-2,15-dioxo-3,16-diaza-tricyclo[14.3.0.0^4,6]nonadec-7-en-18-yl ester]: < 100 nM and < 100 nM.
In the same order, the values of `CC(C)(C)OC(=O)N[C@H]1CCCCC/C=C\[C@@H]2C[C@@]2(C(=O)NS(=O)(=O)C2CC2)NC(=O)[C@@H]2C[C@@H](OC(=O)N3Cc4ccc(N)cc4C3)CN2C1=O` [AR00334286, (1S,4R,6S,14S,18R)-5-Amino-1,3-dihydro-isoindole-2-carboxylic acid 14-tert-butoxycarbonylamino-4-cyclopropanesulfonylaminocarbonyl-2,15-dioxo-3,16-diaza-tricyclo[14.3.0.0^4,6]nonadec-7-en-18-yl ester] are < 100 nM and < 100 nM.
The matching figures for `COc1ccc2c(c1)CN(C(=O)O[C@@H]1C[C@H]3C(=O)N[C@]4(C(=O)NS(=O)(=O)C5CC5)C[C@H]4/C=C\CCCCC[C@H](NC(=O)OC(C)(C)C)C(=O)N3C1)C2` [AR00334314, (1S,4R,6S,14S,18R)-5-Methoxy-1,3-dihydro-isoindole-2-carboxylic acid 14-tert-butoxycarbonylamino-4-cyclopropanesulfonylaminocarbonyl-2,15-dioxo-3,16-diaza-tricyclo[14.3.0.0^4,6]nonadec-7-en-18-yl ester]: < 100 nM and < 100 nM.
For `COCC1c2ccc(OC)cc2CCN1C(=O)O[C@@H]1CC2C(=O)N[C@]3(C(=O)NS(=O)(=O)C4CC4)C[C@H]3/C=C\CCCCC[C@H](NC(=O)OC(C)(C)C)C(=O)N2C1` (stereo partly drawn) [AR00334339, (1S,4R,6S,14S,18R)-6-Methoxy-1-methoxymethyl-3,4-dihydro-1H-isoquinoline-2-carboxylic acid 14-tert-butoxycarbonylamino-4-cyclopropanesulfonylaminocarbonyl-2,15-dioxo-3,16-diaza-tricyclo[14.3.0.0^4,6]nonadec-7-en-18-yl ester], the IC50 on NS3-NS4A protease was < 100 nM. Further, the EC50 in assay [1] is < 100 nM.
As for `COc1ccc(S(=O)(=O)NC(=O)[C@@]23C[C@H]2/C=C\CCCCC[C@H](NC(=O)OC(C)(C)C)C(=O)N2C[C@H](OC(=O)N4Cc5ccccc5C4)C[C@H]2C(=O)N3)cc1` [AR00334341, (1S,4R,6S,14S,18R)-1,3-Dihydro-isoindole-2-carboxylic acid 14-tert-butoxycarbonylamino-4-(4-methoxy-benzenesulfonylaminocarbonyl)-2,15-dioxo-3,16-diaza-tricyclo[14.3.0.0^4,6]nonadec-7-en-18-yl ester], on NS3-NS4A protease, the IC50 is < 100 nM. Further, the EC50 in assay [1] was < 100 nM.
Turning to `CC(C)(C)OC(=O)N[C@H]1CCCCC/C=C\[C@@H]2C[C@@]2(C(=O)NS(=O)(=O)C2CC2)NC(=O)[C@@H]2C[C@@H](OC(=O)N3Cc4cccc(N)c4C3)CN2C1=O` [AR00334385, (1S,4R,6S,14S,18R)-4-Amino-1,3-dihydro-isoindole-2-carboxylic acid 14-tert-butoxycarbonylamino-4-cyclopropanesulfonylaminocarbonyl-2,15-dioxo-3,16-diaza-tricyclo[14.3.0.0^4,6]nonadec-7-en-18-yl ester], the IC50 on NS3-NS4A protease is < 100 nM. Besides, in assay [1], the EC50 is < 100 nM.
As to `CC(C)(C)OC(=O)N[C@H]1CCCCC/C=C\[C@@H]2C[C@@]2(C(=O)NS(=O)(=O)C2CC2)NC(=O)[C@@H]2C[C@@H](OC(=O)N3Cc4c(F)ccc(F)c4C3)CN2C1=O` [AR00334399, (1S,4R,6S,14S,18R)-4,7-Difluoro-1,3-dihydro-isoindole-2-carboxylic acid 14-tert-butoxycarbonylamino-4-cyclopropanesulfonylaminocarbonyl-2,15-dioxo-3,16-diaza-tricyclo[14.3.0.0^4,6]nonadec-7-en-18-yl ester], at NS3-NS4A protease, the IC50 was < 100 nM. Also, the EC50 in assay [1] is < 100 nM.

The term IC50 denotes the concentration that inhibits the measured activity by half. The term EC50 denotes the concentration that produces a half-maximal response.
